In one test the target is T1, Sirt1 (Homo sapiens, UniProt Q96EB6).
T1 construct: made in house; host or cells: E. coli BL21 Star (DE3)
T1 sequence (Q96EB6 134-747): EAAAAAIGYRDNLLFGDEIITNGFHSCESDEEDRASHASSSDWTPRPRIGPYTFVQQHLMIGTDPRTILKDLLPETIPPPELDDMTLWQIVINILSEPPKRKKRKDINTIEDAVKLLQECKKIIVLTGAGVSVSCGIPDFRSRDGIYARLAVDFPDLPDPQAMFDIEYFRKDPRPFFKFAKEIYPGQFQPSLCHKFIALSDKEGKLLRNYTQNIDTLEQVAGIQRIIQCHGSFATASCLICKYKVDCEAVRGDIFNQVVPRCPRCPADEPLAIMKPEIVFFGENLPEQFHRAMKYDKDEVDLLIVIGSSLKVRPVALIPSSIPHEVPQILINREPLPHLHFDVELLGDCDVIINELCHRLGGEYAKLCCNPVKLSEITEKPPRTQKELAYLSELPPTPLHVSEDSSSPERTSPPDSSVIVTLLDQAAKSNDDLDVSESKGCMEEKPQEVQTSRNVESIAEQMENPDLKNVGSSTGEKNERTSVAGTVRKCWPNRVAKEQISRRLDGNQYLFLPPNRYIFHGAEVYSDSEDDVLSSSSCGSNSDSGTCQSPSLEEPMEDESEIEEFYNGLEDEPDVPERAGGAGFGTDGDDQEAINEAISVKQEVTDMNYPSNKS
Kind of test: Homogeneous ZMAL-based fluorescence assay, Sirt1. The format is biochemical. The conditions noted are these: 4th round. The procedure: Recombinant human Sirt5_37−310 was purchased readily in Tris Buffer [25 mM Tris, 100 mM NaCl, 5 mM DTT, 10% glycerol (v/v)] from Enzo Life Sciences (NY, USA). Human Sirt3_118−395 was expressed and purified as described previously ([54]). For expression of human Sirt1_134−747 and Sirt2_56−356 chemically competent cells of E. coli BL21 Star (DE3) were transformed with the expression vectors pET30S-hSirt1_134−747 or pET30S-hSirt2_56−356. Bacteria were grown at 37°C in 2×YT medium supplemented with 50 μg·mL^−1 of kanamycin to an OD600 of 0.6. Then isopropyl-β-D-1-thiogalactopyranoside (IPTG) was added to a final concentration of 1 mM to induce gene expression. After further cultivation at 20°C for 12 h, the cells were harvested by centrifugation for 15 min at 5,000 g. The cells were resuspended in lysis buffer [100 mM Tris/HCl buffer at pH 8.0, 150 mM NaCl and 10% (v/v) glycerol] and disrupted by ultrasonication (Branson Digital Sonifier 250) at 70% amplitude for 10 min (3 s working, 10 s pause). The crude extract was cleared by centrifugation at 100,000 g for 1 h, and the supernatant was loaded onto a Strep-Tactin Superflow cartridge (5 ml bed volume, IBA Lifescience, Germany). Target proteins were eluted with lysis buffer containing 5 mM D-Desthiobiotin (IBA Lifescience, Germany) and further separated by size-exclusion chromatography (Superdex S200 26/60, GE Healthcare, IL, USA) equilibrated in Tris/HCl buffer (20 mM, 150 mM NaCl, pH 8.0). Pure protein was concentrated by ultrafiltration, flash-frozen in liquid nitrogen and stored at −80°C until further use. Identity as well as purity were verified by SDS-PAGE ([55]) and protein concentration was determined by the bicinchoninic acid (BCA) method, using bovine serum albumin (BSA) as a standard ([56]). Deacetylase activity was confirmed to be NAD^+-dependent and could be inhibited with the physiological sirtuin inhibitor nicotinamide.
All compounds were tested in the trypsin-coupled high-throughput ZMAL-assay in black 96-well plates (OptiPlateTM−96F, black, 96 well, Pinch bar design, PerkinElmer, USA), using ZMAL (Z-Lys(acetyl)-AMC) as a substrate ([57]). Sirt1_134−747, Sirt2_56−356, and Sirt3_118−395 were mixed with 5 μL substrate (10.5 μM final assay concentration, diluted from a […] stock in DMSO) and 3 μL Inhibitor in DMSO at various concentrations or DMSO as a control [final DMSO concentration 5% (v/v)]. The mixture was supplemented with assay buffer (50 mM Tris/HCl, 137 mM NaCl, 2.7 mM KCl, 1 mM MgCL2, pH 8.0) to a total volume of 55 μL. Enzyme concentration was adjusted to get a final conversion of 20–30%. Addition of 5 μL NAD^+ (6 mM in assay buffer, final assay concentration of 500 μM) initiated the catalytic reaction and the plates were incubated at 37°C for 4 h with agitation at 140 rpm. The catalytic reaction was stopped by addition of 60 μL stop solution [50 mM Tris, 100 mM NaCl, 6.7% (V/V) DMSO, 5.5 U/μL trypsin, 8 μM nicotinamide, pH 8.0]. The plate was again incubated at 37°C and 140 rpm for 20 min to release free AMC from the deacetylated substrate by trypsin digestion. Afterwards, fluorescence intensity was measured in a microplate reader (λEx = 390 nm, λEm = 460 nm, BMG POLARstar Optima, BMG Labtech, Germany). An enzyme-free blank control and a 100% conversion control containing AMC instead of ZMAL were measured in addition. Inhibition was calculated in % in relation to a DMSO control after blank signal subtraction and IC50 values were determined using a non-linear regression to fit the dose-response curve with OriginPro 9G (OriginLab, USA). Pre-tests as well as IC50 determination was carried out at least twice in duplicates.

For the next test, the system named is HeLa cells. Kind of test: Cell proliferation assay with HeLa cells. It counts as cell-based, human. The note with it: EX-527 20 μM, S1th 13 12 μM, S1th 12 20 μM, S1th 10 30 μM; up to 120 h. The procedure:
1.5 × 10^4 cells/well were seeded in 24-well plates and grown in DMEM 10% in presence of DMSO, 20 μM EX-527, 12 μM S1th 13, 20 μM S1th 12, or 30 μM S1th 10. The growth media containing the drugs was replaced every 48 h. Cells were collected and counted at the indicated times starting 24 h after seeding (0, 24, 48, 72, 96, and 120 h). The experiment was performed twice in duplicates.

`N#CSc1cc(SC#N)c(N)nc1N` [PR-619, reference compound] showed an IC50 against Sirt1 of 2.7 ± 0.2 µM.

On to `N#CSc1cccc(NC(=O)[C@H]2CC=CC[C@H]2C(=O)O)c1` [S1th 10], for which, on Sirt1, it took 23 ± 6 µM to reach half-maximal inhibition (IC50). Further, the “cell proliferation of HeLa cells” value in the test on HeLa cells is “significantly decreased cell proliferation”.

In turn, `CCCCNC(=O)Nc1cccc(SC#N)c1` [S1th 11] registered an IC50 against Sirt1 of 6.3 ± 0.8 µM.

Compound `COc1ccc(SC#N)cc1OCC(=O)N(CCC#N)CCC#N` [S1th 12] displayed an IC50 at Sirt1 of 5.9 ± 1.4 µM. The “cell proliferation of HeLa cells” value in the test with HeLa cells is on record as “only showed a mild effect”.

For the compound `N#CSc1cccc(NS(=O)(=O)c2ccc3c(c2)OCCO3)c1` [S1th 13], at Sirt1, the 50% inhibitory concentration (IC50) worked out at 5.2 ± 1 µM. Further, the “cell proliferation of HeLa cells” value with HeLa cells is reported as “significantly decreased cell proliferation”.

Broadly, the IC50 is the concentration needed to halve the response being measured.
